Legend:
[1] = target: T1, human neutrophil elastase (HNE) (Homo sapiens, UniProt P08246); assay: In vitro inhibition of HNE using a fluorogenic peptide substrate (MeOSuc-Ala-Ala-Pro-Val-AMC); assay type: biochemical; details: 384 MTP format
T1 construct: purchased SERVA Electrophoresis GmbH, Heidelberg, Germany #20927.01
T1 sequence (P08246 30-267): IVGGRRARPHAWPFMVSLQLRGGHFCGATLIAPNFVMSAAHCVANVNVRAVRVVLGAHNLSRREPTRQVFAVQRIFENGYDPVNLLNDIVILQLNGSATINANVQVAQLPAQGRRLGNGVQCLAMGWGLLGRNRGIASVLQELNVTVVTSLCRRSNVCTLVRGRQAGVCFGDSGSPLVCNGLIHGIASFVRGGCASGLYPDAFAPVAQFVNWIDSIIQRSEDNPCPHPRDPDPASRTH
Experimental: I. In Vitro Enzyme Assays of Human Neutrophil Elastase (HNE)
• assay buffer: 0.1 M HEPES-NaOH buffer pH 7.4, 0.5 M NaCl, 0.1% (w/v) bovine serum albumin; • suitable concentration (see below) of HNE (18 U/mg lyophil., #20927.01, SERVA Electrophoresis GmbH, Heidelberg, Germany) in assay buffer; • suitable concentration (see below) of substrate in assay buffer; • suitable concentration of test compounds diluted with assay buffer from a 10 mM stock solution in DMSO.
In Vitro Inhibition of HNE Using a Fluorogenic Peptide Substrate (Continuous Read-Out Signal, 384 MTP Assay Format):
In this protocol, the elastase substrate MeOSuc-Ala-Ala-Pro-Val-AMC (#324740, Calbiochem-Novabiochem Corporation, Merck KGaA, Darmstadt, Germany) is used. The test solution is prepared by mixing 10 μl of test compound dilution, 20 μl of HNE enzyme dilution (final concentration 8-0.4 μU/ml, routinely 2.1 μU/ml) and 20 μl of substrate dilution (final concentration 1 mM-1 μM, routinely 20 μM), respectively. The solution is incubated for 0-2 hrs at 37° C. (routinely one hour). The fluorescence of the liberated AMC due to the enzymatic reaction is measured at 37° C. (TECAN spectra fluor plus plate reader). The rate of increase of the fluorescence (ex. 395 nm, em. 460 nm) is proportional to elastase activity. IC50 values are determined by RFU-versus-[I] plots. Km and Km(app.) values are determined by Lineweaver-Burk plots and converted to Ki values by Dixon plots.

[2] = tested on: human polymorphonuclear cells (PMNs); assay: In vitro PMN elastolysis assay (tritiated elastin); assay type: cell-based
Experimental: In Vitro PMN Elastolysis Assay:
This assay is used to determine the elastolytic potential of human polymorphonuclear cells (PMNs) and assess the proportion of degradation due to, neutrophil elastase [cf. Z. W. She et al., Am. J. Respir. Cell. Mol. Biol. 9, 386-392 (1993)].
Tritiated elastin, in suspension, is coated on to a 96 well plate at 10 μg per well. Test and reference [ZD-0892 (J. Med. Chem. 40, 1876-1885, 3173-3181 (1997), WO 95/21855) and α1 protease inhibitor (α1PI)] compounds are added to the wells at the appropriate concentrations. Human PMNs are separated from peripheral venous blood of healthy donors and resuspended in culture media. The neutrophils are added to the coated wells at concentrations ranging between 1×10^6 to 1×10^5 cells per well. Porcine pancreatic elastase (1.3 μM) is used as a positive control for the assay, and α1PI (1.2 μM) is used as the positive inhibitor of neutrophil elastase. The cellular control is PMNs without compound at each appropriate cell density. The cells plus compounds are incubated in a humidified incubator at 37° C. for 4 hours. The plates are centrifuged to allow the harvest of cell supernatant only. The supernatant is transferred in 75 μl volumes to corresponding wells of a 96 well Lumaplate™ (solid scintillant containing plates). The plates are dried until no liquid is visible in the wells and read in a beta counter for 3 minutes per well. […]

| Compound | IC50 [1] | also measured |
| --- | --- | --- |
| CCOC(=O)C1=C(C)N(c2cccc(C(F)(F)F)c2)C(N)=C(C(=O)OCC)C1c1ccc(C#N)cc1 (stereo not shown) [Example 2, Diethyl 2-amino-4-(4-cyanophenyl)-6-methyl-1-[3-(trifluoromethyl)phenyl]-1,4-dihydro-3,5-pyridine-dicarboxylate] | 30 nM | – |
| CC1=C(C#N)C(c2ccc(C#N)cc2)C(C(N)=O)=C(N)N1c1cccc(C(F)(F)F)c1 (stereo not shown) [Example 4, 2-Amino-5-cyano-4-(4-cyanophenyl)-6-methyl-1-[3-(trifluoromethyl)phenyl]-1,4-dihydro-3-pyridinecarboxamide] | 27 nM | – |
| CC(=O)C1=C(N)N(c2cccc(C(F)(F)F)c2)C(C)=C(C#N)C1c1ccc(C#N)cc1 (stereo not shown) [Example 12, 5-Acetyl-6-amino-4-(4-cyanophenyl)-2-methyl-1-[3-(trifluoromethyl)phenyl]-1,4-dihydro-3-pyridinecarbonitrile] | 90 nM | – |
| CCOC(=O)C1=C(N)N(c2cccc(C(F)(F)F)c2)C(COC)=C(C(=O)OC)C1c1ccc(C#N)cc1 (stereo not shown) [Example 25] | 40 nM | – |
| CCOC(=O)C1=C(C)N(c2cccc(C(F)(F)F)c2)C(N)=C(C(=O)OCC)C1c1ccc(Br)nc1 (stereo not shown) [Example 43] | 800 nM | – |
| CCNC(=O)NC1=C(C(=O)OCC)C(c2ccc(C#N)cc2)C(C(=O)OCC)=C(C)N1c1cccc(C(F)(F)F)c1 (stereo not shown) [Example 44, Diethyl 4-(4-cyanophenyl)-2-{[(ethylamino)carbonyl]amino}-6-methyl-1-[3-(trifluoromethyl)phenyl]-1,4-dihydro-3,5-pyridinedicarboxylate] | 130 nM | – |
| CCOC(=O)C1=C(C)N(c2cccc(C(F)(F)F)c2)C(N(C)C)=C(C(=O)OCC)C1c1ccc(C#N)cc1 (stereo not shown) [Example 47, Diethyl 4-(4-cyanophenyl)-2-(dimethylamino)-6-methyl-1-[3-(trifluoromethyl)-phenyl]-1,4-dihydro-3,5-pyridinedicarboxylate] | 500 nM | – |
| CCOC(=O)C1=C(C)N(c2cccc(C(F)(F)F)c2)C(N)=C(C2=NC(C)(C)CO2)C1c1ccc(C#N)cc1 (stereo not shown) [Example 50, Ethyl 6-amino-4-(4-cyanophenyl)-5-(4,4-dimethyl-4,5-dihydro-1,3-oxazol-2-yl)-2-methyl-1-[3-(trifluoromethyl)phenyl]-1,4-dihydro-3-pyridinecarboxylate] | 10 nM | – |
| COc1ccc(C(=O)N[C@H](C(=O)N2CCC[C@H]2C(=O)N[C@H](C(=O)C(F)(F)F)C(C)C)C(C)C)cc1 [ZD-0892] | – | IC50 ([2]; n=2 different donors at 3.6×10^5 cells per well, read-out: IC50 (mean±s.e.m.)): 45.5 ± 7.75 nM |
| α1PI: α1 protease inhibitor, reference and positive inhibitor of neutrophil elastase | – | inhibition of elastolysis of 3H-elastin (mean±s.e.m.) ([2]; at 1.2 μM, n=3 different donors at 3.6×10^5 cells per well): 83.46±3.97% |
